Experimental data reported in patent US12234245B2, “Sulfonimidamide compounds as inhibitors of interleukin-1 activity” (Genentech, Inc., priority 2018, dated 2025).
Read-outs that look alike come from different tables or passages of the source.

How the values were obtained:
Type in all cases: cell-based
[1] = molecular target: T1, NLRP3 inflammasome (Homo sapiens, UniProt Q96P20); experiment: NLRP3 inflammasome activation assay in PBMCs, IL-1β release (ELISA / HTRF); set-up: were freshly isolated from human peripheral blood from healthy donors; StemCells Technologies; host or cells: primary human PBMCs, LPS-primed, nigericin-stimulated; conditions: LPS primed
Method in brief: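 Human PBMCs primed with 100 ng/mL LPS for 3 h, pre-treated with compound for 30 min (0.00017–10 µM, or from 40 µM in 2-fold 20-point series), then stimulated with 10 µM nigericin for 1.5 h at 37 °C. Released IL-1β in supernatant quantified by ELISA or by HTRF (665/620 ratio, overnight RT).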

[2] = molecular target: T1, NLRP3 inflammasome; experiment: THP-1 ASC-GFP speck assay; set-up: host or cells: THP-1 ASC-GFP cells, PMA-differentiated, LPS-primed, nigericin-stimulated; conditions: THP-1 ASC-GFP cells, PMA differentiated, LPS primed, 10 μM nigericin; read-out: THP1 ASC Speck IC50
Method in brief: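 PMA-differentiated (500 ng/ml, overnight) THP-1 ASC-GFP cells primed with 1 μg/mL LPS for 3 h, preincubated 30 min with compound (top 40 μM, 2-fold, 20 points), then stimulated with 10 μM nigericin for 90 min at 37 °C. After fixation and Hoechst staining, imaging gave the percentage of cells bearing a GFP ASC speck.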

[3] = test system: TNFα; experiment: TNFα counter-screen in LPS and nigericin stimulated PBMCs; conditions: human PBMCs
Description: (§1) Human peripheral blood mononuclear cells (PBMCs), consisting of lymphocytes (T, B and NK cells), monocytes and dendritic cells, were freshly isolated from human peripheral blood from healthy donors. Cells were obtained through an IRB approved donor program by iXCells Biotechnologies where all the donors were tested for bacterial and viral infections. Cells were purified from peripheral blood using ficoll gradient centrifugation.
(§2) Fresh or cryopreserved PMBCs were seeded in V-bottom 96-well plate at 0.5-1×10^5 cells per well and incubated overnight at 37° C. with 5% CO2 in RPMI 1640 medium with GlutaMAX supplement, 4.5 g/L D-glucose, 10% Fetal Bovine Serum (FBS), […] Sodium Pyruvate, 1% Penicillin/Streptomycin, 10 mM HEPES and 0.05 mM of β-mercaptoethanol. Freshly isolated or cryopreserved KCs cells were seeded in flat-bottom 96-well plates at 0.6-1.5×10^5 cells/well and incubated overnight at 37° C. 5% CO2 in RPMI 1640 Medium with GlutaMAX supplement, FBS, 1% Penicillin/Streptomycin and 10 mM HEPES. The following day, the cells were primed with 100 ng/mL of lipopolysaccharides (LPS; Sigma Aldrich) in FBS-free RPMI 1640 for 3 h. After the priming step, the media was removed and PBMCs were pre-incubated with serial concentrations of test compounds (0.00017-10 uM) or vehicle (DMSO) for 30 min in FBS-free media prior to addition of the NLRP3 activator. Cells were then stimulated with 10 uM Nigericin (Sigma Aldrich; InvivoGen) for 1.5 h. Plates were centrifuged at 1,500 rpm for 3 minutes to pellet cells and supernatant was transferred into new plates for subsequent experiments.
(§3) For ELISA assays cells were seeded into 96-well plates. Post study, supernatants were removed and the levels of mature IL-1β, IL18 and TNFα (Quantikine ELISA, R&D systems) were measured in cell conditioned media by ELISA according to manufacturer's instructions.
(§4) TNFα levels of LPS and nigericin stimulated cells were measured by HTRF assay (Cisbio, Bedford, MA). […] Measuring TNFalpha production also serves as a technical counter-screen to eliminate compounds that interfere with the HTRF reagents. Thus compounds that inhibit both IL-1β and TNFα levels are triaged for either being non-selective for inflammasome or interfering with the HTRF readout.

[4] = test system: PBMCs; experiment: CTG (CellTiter-Glo) viability assay in PBMCs; conditions: LPS and nigericin stimulated
Description: as §1, §2
(§5) Viability of compound treated cells was measured using CellTiter-Glo® assay (Promega, Madison, Wis.) that measures the ATP content of cells which is proportional to the number of live cells within a well. This is a counter-screen to establish that the reduction of IL-1β levels in LPS and nigericin stimulated and compound treated cells is not due to cytotoxicity, but rather through the inhibition of the inflammasome pathway. Compounds inhibiting NRLP3 inflammasome activation ultimately increase the viability of LPS and nigericin stimulated cells by blocking NLRP3 mediated pyroptosis that would otherwise lead to cell lysis.

[5] = test system: TNFα; experiment: TNFα counter-screen in LPS and nigericin stimulated Kupffer cells; conditions: human Kupffer cells
Description: (§6) Human Kupffer cells (KCs), specialized liver macrophages residing in […], were obtained by gradient isolation from liver specimens harvested post-mortem by Samsara Sciences. Cells were obtained through an IRB approved donor program by Samsara Sciences and all donors tested negative for bacterial and viral infections.
as §2, §3, §4

[6] = molecular target: T1, NLRP3 inflammasome; experiment: NLRP3 inflammasome activation assay in Kupffer cells, IL-1β release; set-up: were freshly isolated from human peripheral blood from healthy donors; StemCells Technologies; host or cells: primary human PBMCs, LPS-primed, nigericin-stimulated; conditions: LPS primed, nigericin
From the text: Some of the following assays were used to determine the inhibitory activity of the compounds on the NLRP3 inflammasome using a common inflammasome activation stimuli—nigericin.
as §6, §2, §3

[7] = test system: Kupffer cells; experiment: CTG (CellTiter-Glo) viability assay in Kupffer cells; conditions: human Kupffer cells
Description: as §6, §2, §5

[8] = 10 μM nigericin, read-out: PBMC IL-1β IC50
[9] = human PBMCs, read-out: PBMC CTG IC50
[10] = 10 uM nigericin, read-out: PBMC IL-1 β IC50
[11] = PBMC, read-out: PBMC TNF α IC50

T1 sequence (Q96P20 whole entry): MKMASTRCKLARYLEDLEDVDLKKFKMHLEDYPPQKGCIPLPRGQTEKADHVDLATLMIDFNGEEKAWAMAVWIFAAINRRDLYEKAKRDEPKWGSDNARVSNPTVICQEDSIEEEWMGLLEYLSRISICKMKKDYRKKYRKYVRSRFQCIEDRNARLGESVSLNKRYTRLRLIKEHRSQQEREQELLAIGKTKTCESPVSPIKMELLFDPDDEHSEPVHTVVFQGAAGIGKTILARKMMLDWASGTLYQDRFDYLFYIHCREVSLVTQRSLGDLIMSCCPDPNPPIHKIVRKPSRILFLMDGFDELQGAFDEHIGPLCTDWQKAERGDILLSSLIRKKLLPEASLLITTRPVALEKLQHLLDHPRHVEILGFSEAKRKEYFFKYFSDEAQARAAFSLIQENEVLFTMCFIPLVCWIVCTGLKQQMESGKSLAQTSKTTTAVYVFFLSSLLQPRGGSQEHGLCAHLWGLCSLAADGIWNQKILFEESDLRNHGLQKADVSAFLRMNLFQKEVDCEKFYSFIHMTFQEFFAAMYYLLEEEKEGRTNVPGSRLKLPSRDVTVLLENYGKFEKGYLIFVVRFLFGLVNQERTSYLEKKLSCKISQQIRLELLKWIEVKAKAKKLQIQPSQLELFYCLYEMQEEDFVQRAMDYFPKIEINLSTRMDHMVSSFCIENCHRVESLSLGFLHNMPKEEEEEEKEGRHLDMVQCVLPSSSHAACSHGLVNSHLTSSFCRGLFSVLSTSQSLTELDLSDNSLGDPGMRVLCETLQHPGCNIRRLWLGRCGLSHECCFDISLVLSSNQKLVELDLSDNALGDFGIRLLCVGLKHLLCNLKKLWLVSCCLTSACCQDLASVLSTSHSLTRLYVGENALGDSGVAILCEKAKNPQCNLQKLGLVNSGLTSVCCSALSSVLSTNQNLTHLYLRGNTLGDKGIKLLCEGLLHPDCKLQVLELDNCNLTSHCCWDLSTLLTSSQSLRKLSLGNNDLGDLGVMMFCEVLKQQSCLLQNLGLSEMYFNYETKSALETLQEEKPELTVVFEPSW

In the case of `CN(C)C1COc2c(S(N)(=O)=NC(=O)Nc3c4c(cc5c3CCC5)CCC4)cnn2C1` (single isomer, unassigned) [Example 33], the IC50 [1, 8] is reported as 890 nM, the IC50 [2] is reported as 1600 nM and the IC50 ([3]; PBMC) is reported as > 10 µM. It also gave an IC50 ([4]; Homo sapiens, PBMC) of 2 nM.
`CNC1COc2c(S(N)(=O)=NC(=O)Nc3c(C(C)C)cc(F)cc3C(C)C)cnn2C1` (single isomer, unassigned) [Example 27] was tested, and the IC50 [1, 8] was 120 nM, the IC50 [2] was 200 nM and the IC50 ([3]; PBMC) was > 10 µM. For the same compound, the IC50 ([4]; Homo sapiens, PBMC) was > 10000 nM.
With `COC1COc2c(S(N)(=O)=NC(=O)Nc3c4c(cc5c3CCC5)CCC4)cnn2C1` (single isomer, unassigned) [Example 19] the IC50 [1, 8] was 1120 nM, the IC50 [2] was 640 nM and the IC50 ([3]; PBMC) was > 10 µM. It also gave an IC50 [4, 9] of 860 nM.
For `COC1COc2c(S(N)(=O)=NC(=O)Nc3c4c(c(F)c5c3CCC5)CCC4)cnn2C1` (single isomer, unassigned) [Example 32], the IC50 [1, 8] was 13 nM, the IC50 [2] was 45 nM and the IC50 ([3]; read-out: PBMC TNFα IC50) was > 10 µM. For the same compound, the IC50 [4, 9] was 5 nM.
With `COC1COc2c(S(N)(=O)=NC(=O)Nc3c4c(c(F)c5c3CCC5)CCC4)cnn2C1` (single isomer, unassigned) [Example 31] the IC50 [1, 8] was 150 nM, the IC50 [2] was 620 nM and the IC50 ([3]; PBMC) was > 10 µM. For the same compound, the IC50 [4, 9] was 20 nM.
In the case of `NS(=O)(=NC(=O)Nc1c2c(cc3c1CCC3)CCC2)c1cnn2c1OCCC2` (single isomer, unassigned) [Example 13], the IC50 [1, 8] is reported as 35 nM, the IC50 [2] is reported as 75 nM and the IC50 ([3]; PBMC) is reported as > 10 µM. The IC50 [4, 9] was 8 nM.
`CNC1COc2c(S(N)(=O)=NC(=O)Nc3c4c(cc5c3CCC5)CCC4)cnn2C1` (single isomer, unassigned) [Example 26] was tested, and the IC50 [5] was > 10 µM, the IC50 ([6]; read-out: Kupffer IL-1 β IC50) was 20 nM and the IC50 [1, 8] was 7.6 nM. The IC50 [2] was 9.7 nM, the IC50 ([3]; PBMC) was > 10 µM and the IC50 [4, 9] was 2 nM. The IC50 [7] was 21 nM.
For `NS(=O)(=NC(=O)Nc1c2c(cc3c1CCC3)CCC2)c1cnn2c1OCCC2` (single isomer, unassigned) [Example 14], the IC50 [1, 8] was 1910 nM, the IC50 [2] was 1200 nM and the IC50 ([3]; read-out: PBMC TNFα IC50) was > 10 µM. For the same compound, the IC50 [4, 9] was 1 nM.
In the case of `CO[C@@H]1COc2c(S(=N)(=O)NC(=O)Nc3c4c(cc5c3CCC5)CCC4)cnn2C1` (stereo partly drawn) [drawing 668], the IC50 ([5]; read-out: Kupffer TNF α IC50) is reported as > 10 µM, the IC50 ([6]; read-out: Kupffer IL-β B IC50) is reported as < 100 nM and the IC50 [1, 10] is reported as < 100 nM. For the same compound, the IC50 ([3]; read-out: PBMC TNF α IC50) was > 10 µM, the IC50 [4, 9] was < 100 nM and the IC50 [7] was < 100 nM.
With `NS(=O)(=NC(=O)Nc1c2c(cc3c1CCC3)CCC2)c1cnn2c1OCCC2` (stereo not drawn) the IC50 ([6]; read-out: Kupffer IL-β B IC50) was 100 to 1000 nM, the IC50 [1, 10] was < 100 nM and the IC50 ([4]; Homo sapiens, PBMC) was 100 to 1000 nM. It also gave an IC50 [7] of 100 to 1000 nM.
In the case of `COC1COc2c(S(N)(=O)=NC(=O)Nc3c4c(cc5c3CCC5)CCC4)cnn2C1` (single isomer, unassigned) [Example 20], the IC50 [5] is reported as > 10 µM, the IC50 ([6]; read-out: Kupffer IL-1 β IC50) is reported as < 100 nM and the IC50 [1, 8] is reported as 4 nM. For the same compound, the IC50 ([3]; read-out: PBMC TNFα IC50) was > 10 µM, the IC50 [4, 9] was 19 nM and the IC50 [7] was < 100 nM.
With `NS(=O)(=NC(=O)Nc1c2c(cc3c1CCC3)CCC2)c1cnn2c1OCCC2` (racemic) [Example 1, N′-((1,2,3,5,6,7-hexahydro-s-indacen-4-yl)carbamoyl)-6,7-dihydro-5H-pyrazolo[5,1-b][1,3]oxazine-3-sulfonimidamide] the IC50 ([6]; read-out: Kupffer IL-1 β IC50) was 123 nM, the IC50 [1, 8] was 82 nM and the IC50 ([4]; Homo sapiens, PBMC) was 300 nM. For the same compound, the IC50 [7] was 103 nM.
In the case of `CO[C@@H]1COc2c(S(N)(=O)=NC(=O)Nc3c4c(c(F)c5c3CCC5)CCC4)cnn2C1` (mixture of isomers) [Example 18, (6S)—N′-((8-fluoro-1,2,3,5,6,7-hexahydro-s-indacen-4-yl)carbamoyl)-6-methoxy-6,7-dihydro-5H-pyrazolo[5,1-b][1,3]oxazine-3-sulfonimidamide], the IC50 [1, 8] is reported as 16 nM, the IC50 ([3]; PBMC) is reported as > 10 µM and the IC50 ([4]; Homo sapiens, PBMC) is reported as 0.1 nM.
For `CN[C@@H]1COc2c(S(=N)(=O)NC(=O)Nc3c4c(cc5c3CCC5)CCC4)cnn2C1` (stereo partly drawn) [drawing 674], the IC50 ([5]; read-out: Kupffer TNF α IC50) was > 10 µM, the IC50 ([6]; read-out: Kupffer IL-β B IC50) was < 100 nM and the IC50 [1, 10] was < 100 nM. For the same compound, the IC50 ([3]; read-out: PBMC TNF α IC50) was > 10 µM, the IC50 [4, 9] was < 100 nM and the IC50 [7] was < 100 nM.
With `NS(=O)(=NC(=O)Nc1c2c(c(F)c3c1CCC3)CCC2)c1cnn2c1OCC2` (racemic) [Example 29, N′-((8-fluoro-1,2,3,5,6,7-hexahydro-s-indacen-4-yl)carbamoyl)-2,3-dihydropyrazolo[5,1-b]oxazole-7-sulfonimidamide] the IC50 [1, 8] was 94 nM, the IC50 [2] was 140 nM and the IC50 ([3]; PBMC) was > 10 µM. The IC50 ([4]; Homo sapiens, PBMC) was 3750 nM.
`NS(=O)(=NC(=O)Nc1c2c(c(F)c3c1CCC3)CCC2)c1cnn2c1OCCCC2` (racemic) [Example 30, N′-((8-fluoro-1,2,3,5,6,7-hexahydro-s-indacen-4-yl)carbamoyl)-5,6,7,8-tetrahydropyrazolo[5,1-b][1,3]oxazepine-3-sulfonimidamide] was tested, and the IC50 [1, 8] was 67 nM, the IC50 [2] was 360 nM and the IC50 ([3]; PBMC) was > 10 µM. For the same compound, the IC50 ([4]; Homo sapiens, PBMC) was > 10000 nM.
In the case of `NS(=O)(=NC(=O)Nc1c2c(c(F)c3c1CCC3)CCC2)c1cnn2c1OCCC2` (single isomer, unassigned) [drawing 669], the IC50 [1, 10] is reported as < 100 nM, the IC50 [3, 11] is reported as > 10 µM and the IC50 ([4]; Homo sapiens, PBMC) is reported as < 100 nM.
With `CO[C@@H]1COc2c(S(=N)(=O)NC(=O)Nc3c(C(C)C)cc(F)cc3C(C)C)cnn2C1` (stereo partly drawn) [drawing 672] the IC50 [1, 10] was 100 to 1000 nM, the IC50 ([3]; read-out: PBMC TNF α IC50) was > 10 µM and the IC50 [4, 9] was 100 to 1000 nM.
`N=S(=O)(NC(=O)Nc1c2c(cc3c1CCC3)CCC2)c1cnn2c1OCCC2` (single isomer, unassigned) [drawing 662] was tested, and the IC50 [1, 10] was 1000 to 10000 nM, the IC50 ([3]; read-out: PBMC TNF α IC50) was > 10 µM and the IC50 [4, 9] was < 100 nM.
With `CN[C@@H]1COc2c(S(=N)(=O)NC(=O)Nc3c(C(C)C)cc(F)cc3C(C)C)cnn2C1` (single isomer, unassigned) [drawing 675] the IC50 [1, 10] was 100 to 1000 nM, the IC50 [3, 11] was > 10 µM and the IC50 ([4]; Homo sapiens, PBMC) was > 10000 nM.
